This test concerns Trichoderma pseudokoningii (ATCC #26801), Aureobasidium pullulans (ATCC #9348), and a mixture of Aspergillus niger (ATCC #6275) and Penicillium funiculosum …. Kind of test: ASTM D4445-10 cumulative fungal growth of all three examined organisms and Synergy Index. It counts as cell-based. The conditions noted are these: for Σ Fungal Growth: cumulative score of the three sets of fungi; for % of Water-Only Control: Σ fungal growth normalized to water-only control. The procedure: (§1) Radiata pine lumber was machined to specimens with size of 7 mm by 20 mm in cross section and 70 mm long. Solutions prepared as described above were used to treat the machined Radiata pine specimens. The treatment was carried out in a 600 mL beaker. Two unused test pieces were placed on the bottom of the beaker, and the specimens, four in a layer, were placed on the previous layers until all the treatment replicates were included. The specimens were held down with a finger bearing down on a watch glass and submerged in treating solution for 15 seconds. After 15 seconds, the beaker was drained but with specimens still held down, and then was tightly covered with a piece of plastic sheet to prevent drying and was stored overnight. Similarly, untreated control specimens were treated with water.
One day after treatment, duplicate wood specimens from the same treatment group were tested according to ASTM D4445-10 methodology. The wood specimens were checked for inhibition against sapstain fungi and molds Trichoderma pseudokoningii (ATCC #26801), Aureobasidium pullulans (ATCC #9348), and a mixture of Aspergillus niger (ATCC #6275) and Penicillium funiculosum (ATCC #11797). This method is described below:
(1) Placed duplicate wood specimens on top of polyester mesh and laid on a stack of four (4) filter paper squares (approximately 2 inches by 2.5 inches) presoaked in 5 mL sterile DI water.
(2) Prepared fungal mixture from freshly grown slants of each test organism.
(3) Added 2 mL of DI water and 0.1% Tween 20 to the slant and inverted to mix.
(4) Poured the concentrate into a total volume of 16 mL.
(5) Enumerated the stock via hemocytometer and adjusted to […] with additional DI water.
(6) Inoculated wood specimens via applying 0.25 mL of one of the three separate fungal suspensions to the top of the wood and distributing evenly on the surface with an L-spreader.
(7) Placed inoculated wood specimens in a humidity chamber for one month at 95% or larger relative humidity and 28° C.
(8) Rated wood specimens with a rating from “0” (No Growth) to “5” (Complete Growth).
In order to show more directly the possible synergy in the invention, the results are presented by applying the Synergy Index (S.I.), which is analyzed using the following equation:
FGA=Cumulative fungal growth scores of all three examined organisms of compound […], acting alone
FGA′=Cumulative fungal growth scores of all three examined organisms of compound […], in the mixture
FGB=Cumulative fungal growth scores of all three examined organisms of compound […], acting alone
FGB′=Cumulative fungal growth scores of all three examined organisms of compound […], in the mixture
When SI is greater than 1, antagonism is indicated. […] When SI equals to 1, the action of biocides is additive.
as §1, with “treat” for “treat the”
One day after treatment, duplicate wood specimens from the same treatment group were tested according to ASTM D4445-10(2019) methodology. The wood specimens were checked for inhibition against sapstain fungi and molds Trichoderma pseudokoningii (ATCC #26801), Aureobasidium pullulans (ATCC #9348), and a mixture of Aspergillus niger (ATCC #6275) and Penicillium funiculosum (ATCC #11797). […]

[1] abbreviates: 2400 ppm treatment solution, Example 2.
[2] abbreviates: 2400 ppm treatment solution, Example 3.
[3] abbreviates: 4800 ppm treatment solution, Example 2.

Turning to “didecyl bis(hydroxyethyl) ammonium borate [DPAB]”, the “Σ Fungal Growth” value under setting [1] turned out to be 10.8, the “Σ Fungal Growth” value under setting [2] amounted to 7.6 and the “Σ Fungal Growth” value under setting [3] is reported as 7.6. Moreover, the “% of Water-Only Control” value runs as follows: under setting [1], 77.5%; under setting [2], 58.46%; under setting [3], 55.0%.

In the case of `CCCCNC(=O)OCC#CI` [IPBC, 3-iodo-2-propynyl butyl carbamate], the “Σ Fungal Growth” value was determined as 2.6 under setting [1], 3.8 under setting [2] and 2.8 under setting [3]. Also, the “% of Water-Only Control” value under setting [1] amounted to 18.9%, the “% of Water-Only Control” value under setting [2] is 29.23% and the “% of Water-Only Control” value under setting [3] worked out at 19.8%.
